Experimental data as given in patent publication US20260226062A1, “COMPOSITIONS USEFUL FOR MODULATING SPLICING” (Skyhawk Therapeutics, Inc., priority 2023, published 2026).

tested on: ATXN3 pre-mRNA; test: ATXN3 Quantitative Splicing Assay (qPCR, E4E5 primers/probe detecting transcripts containing exon 4); format: cell-based; conditions: Human neuroblastoma SK-N-MC cells, 24 h treatment, qPCR of transcripts containing exon 4; read-out: ATXN3 Potency - Splicing: ATXN3 E4E5 IC50
Method: Human neuroblastoma SK-N-MC cells were plated in 384-well plates at 20,000 cells/well. Twenty-four hours after plating, cells were treated with compounds for 24 h at appropriate concentrations ranging from 30 μM to 0.6 nM (0.3% DMSO). Treated cells were lysed in 15 μL of lysis buffer, and cDNA was synthesized using the Fast Advanced Cells-to-Ct kit. Two μL of each cDNA was used in qPCR reactions to confirm the exon 4 skipped transcripts of ATXN3. A second set of primers/probe E4E5 was used to detect the transcripts containing exon 4. The third set of primers/probe E8E9 was used to detect total gene level of ATXN3. The qPCR reactions were prepared in 384-well plates in 10 μL volume, using TaqMan™ Fast Advanced Master Mix with primers and probes shown in the table below. Reactions were run in a Quant Studio 6 qPCR instrument with default settings.
The primers and probes are listed below in Table 3.

Row | Compound | IC50 [nM]
1 | C[C@H](F)[C@H](N)Cc1cc2c(NCc3ncco3)nc(Cl)nn2c1Br [Compound 1, 6-((2R,3S)-2-amino-3-fluorobutyl)-7-bromo-2-chloro-N-(oxazol-2-ylmethyl)pyrrolo[2,1-f][1,2,4]triazin-4-amine] | 101 to 500
2 | C[C@H](F)[C@H](N)Cc1cc2c(NCc3ncco3)nc(Cl)nn2c1Cl [Compound 6, 6-((2R,3S)-2-amino-3-fluorobutyl)-2,7-dichloro-N-(oxazol-2-ylmethyl)pyrrolo[2,1-f][1,2,4]triazin-4-amine] | 101 to 500
3 | Cc1c(C[C@@H](N)[C@H](C)F)cc2c(NCc3ccsn3)nc(Cl)nn12 [Compound 10, 6-((2R,3S)-2-amino-3-fluorobutyl)-2-chloro-N-(isothiazol-3-ylmethyl)-7-methylpyrrolo[2,1-f][1,2,4]triazin-4-amine] | 101 to 500
4 | Cc1c(C[C@@H](N)[C@H](C)F)cc2c(NCc3nccs3)nc(Cl)nn12 [Compound 4, 6-((2R,3S)-2-amino-3-fluorobutyl)-2-chloro-7-methyl-N-(thiazol-2-ylmethyl)pyrrolo[2,1-f][1,2,4]triazin-4-amine] | 101 to 500
5 | C[C@H](F)[C@H](N)Cc1cc2c(NCc3nccs3)nc(Cl)nn2c1Br [Compound 3, 6-((2R,3S)-2-amino-3-fluorobutyl)-7-bromo-2-chloro-N-(thiazol-2-ylmethyl)pyrrolo[2,1-f][1,2,4]triazin-4-amine] | 101 to 500
6 | C[C@H](F)[C@H](N)Cc1cc2c(NCc3nccs3)nc(Cl)nn2c1Cl [Compound 5, 6-((2R,3S)-2-amino-3-fluorobutyl)-2,7-dichloro-N-(thiazol-2-ylmethyl)pyrrolo[2,1-f][1,2,4]triazin-4-amine] | 101 to 500
7 | C[C@H](F)[C@H](N)Cc1cc2c(NCc3ccon3)nc(Cl)nn2c1Br [Compound 7, 6-((2R,3S)-2-amino-3-fluorobutyl)-7-bromo-2-chloro-N-(isoxazol-3-ylmethyl)pyrrolo[2,1-f][1,2,4]triazin-4-amine] | 101 to 500

The remaining lines, values ahead:

Row | IC50 [nM] | Compound
8 | 501 to 5000 | Cc1c(C[C@@H](N)[C@H](C)F)cc2c(NCc3ccon3)nc(Cl)nn12 [Compound 9, 6-((2R,3S)-2-amino-3-fluorobutyl)-2-chloro-N-(isoxazol-3-ylmethyl)-7-methylpyrrolo[2,1-f][1,2,4]triazin-4-amine]
9 | 501 to 5000 | Cc1c(C[C@@H](N)[C@H](C)F)cc2c(NCc3ncco3)nc(Cl)nn12 [Compound 2, 6-((2R,3S)-2-amino-3-fluorobutyl)-2-chloro-7-methyl-N-(oxazol-2-ylmethyl)pyrrolo[2,1-f][1,2,4]triazin-4-amine]
10 | 0.01 to 100 | C[C@H](F)[C@H](N)Cc1cc2c(NCc3ccsn3)nc(Cl)nn2c1Br [Compound 8, 6-((2R,3S)-2-amino-3-fluorobutyl)-7-bromo-2-chloro-N-(isothiazol-3-ylmethyl)pyrrolo[2,1-f][1,2,4]triazin-4-amine]
